Eleven molecules from patent US9725416B2, “Ethynyl derivatives” (Hoffmann-La Roche Inc., priority 2014, dated 2017) can be followed below.

This assay concerns the target T1, human mGlu4 receptor (Homo sapiens, UniProt Q14833).
T1 construct: expressed in transfected cells; host or cells: HEK-293 (monoclonal, stably transfected)
The experiment in a line: Ca2+ mobilization in vitro assay on recombinant human mGlu4 expressed in HEK293 cells (mGlu4 PAM). Format: cell-based. The following applies: for Emax: HEK293, maximal response in % of the maximal stimulatory effect obtained with saturating concentrations of L-AP4, read-out: Eff. (%); for EC50: HEK-293 cells, Ca2+ mobilization, L-AP4 added at EC20. The gist of the method: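 HEK293 line stably expressing human mGlu4 (low expression, low constitutive activity), Fluo-4AM loaded; compounds (11 half-log dilutions) preincubated 10-30 min at 37 °C, then L-AP4 added at its EC20, determined daily. EC50 from peak fluorescence minus basal, normalized to saturating L-AP4 maximum, four-parameter fit.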

Structures are written as SMILES.

T1 sequence (Q14833 33-912): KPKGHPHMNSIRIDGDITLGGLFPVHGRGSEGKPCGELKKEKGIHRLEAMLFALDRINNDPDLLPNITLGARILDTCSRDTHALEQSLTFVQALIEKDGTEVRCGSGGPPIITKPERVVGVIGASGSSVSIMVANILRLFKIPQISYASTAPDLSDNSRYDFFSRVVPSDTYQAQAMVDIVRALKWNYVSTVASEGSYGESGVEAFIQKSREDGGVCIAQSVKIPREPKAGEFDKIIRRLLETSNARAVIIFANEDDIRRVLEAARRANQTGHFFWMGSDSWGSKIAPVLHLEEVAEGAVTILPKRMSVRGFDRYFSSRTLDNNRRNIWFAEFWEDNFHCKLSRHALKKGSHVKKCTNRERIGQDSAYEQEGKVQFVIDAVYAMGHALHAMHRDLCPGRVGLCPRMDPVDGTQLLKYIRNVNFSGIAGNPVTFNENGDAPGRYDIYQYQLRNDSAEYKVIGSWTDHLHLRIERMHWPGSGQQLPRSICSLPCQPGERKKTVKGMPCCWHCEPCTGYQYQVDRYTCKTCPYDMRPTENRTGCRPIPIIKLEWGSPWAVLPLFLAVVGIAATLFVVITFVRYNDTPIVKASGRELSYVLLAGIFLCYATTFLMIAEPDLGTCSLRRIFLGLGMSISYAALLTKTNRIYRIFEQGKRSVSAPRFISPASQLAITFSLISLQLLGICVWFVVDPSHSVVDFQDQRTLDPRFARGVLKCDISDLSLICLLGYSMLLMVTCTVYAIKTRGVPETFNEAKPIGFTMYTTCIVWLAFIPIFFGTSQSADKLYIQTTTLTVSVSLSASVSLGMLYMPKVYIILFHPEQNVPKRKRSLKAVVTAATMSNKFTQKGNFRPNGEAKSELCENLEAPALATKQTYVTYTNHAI

On to `CN1CCN2C(=O)N(c3c(F)cc(C#Cc4ccccc4)cc3F)C(=O)CC2(C)C1=O` (racemic) [Example 35, (9aRS)-7-[2,6-Difluoro-4-(2-phenylethynyl)phenyl]-2,9a-dimethyl-4,9-dihydro-3H-pyrazino[1,2-c]pyrimidine-1,6,8-trione], for which the Emax came out at 131% and the EC50 came out at 158 nM.
The like results for `Cc1cc([C@]2(C)CC(=O)N(c3c(F)cc(C#Cc4ccccc4)cc3F)C(=O)N2C)ccn1` [Example 62, (6S)-3-[2,6-Difluoro-4-(2-phenylethynyl)phenyl]-1,6-dimethyl-6-(2-methyl-4-pyridyl)hexahydropyrimidine-2,4-dione] were, in that order, 102% and 56 nM.
Consider `COc1ccc([C@]2(C)CC(=O)N(c3c(F)cc(C#Cc4ccccc4)cc3F)C(=O)N2C)cn1` [Example 63, (6S)-3-[2,6-Difluoro-4-(2-phenylethynyl)phenyl]-6-(6-methoxy-3-pyridyl)-1,6-dimethyl-hexahydropyrimidine-2,4-dione], for which the Emax stood at 109% and the EC50 came out at 42 nM.
In the case of `COc1ccc([C@]2(C)CC(=O)N(c3c(F)cc(C#Cc4ccccc4)cc3F)C(=O)N2C)nn1` [Example 81, (6S)-3-[2,6-Difluoro-4-(2-phenylethynyl)phenyl]-6-(6-methoxypyridazin-3-yl)-1,6-dimethyl-hexahydropyrimidine-2,4-dione], the Emax came out at 100% and the concentration for a half-maximal effect (EC50) was 28 nM.
The like results for `CN1C(=O)N(c2c(F)cc(C#Cc3cccnc3)cc2F)C(=O)CC1(C)c1ccccc1` (stereo in doubt) [Example 20, (6R)-3-[2,6-Difluoro-4-[2-(3-pyridyl)ethynyl]phenyl]-1,6-dimethyl-6-phenyl-hexahydropyrimidine-2,4-dione] were, in that order, 175% and 239 nM.
The like results for `O=C1CC2COCCN2C(=O)N1c1c(F)cc(C#Cc2ccccc2)cc1F` (racemic) [Example 8, (9aRS)-7-[2,6-Difluoro-4-(2-phenylethynyl)phenyl]-3,4,9,9a-tetrahydro-1H-pyrimido[6,1-c][1,4]oxazine-6,8-dione] were, in that order, 107% and 144 nM.
`CN1C(=O)N(c2c(F)cc(C#Cc3ccccc3)cc2F)C(=O)CC1(C)c1ccncc1` (racemic) [Example 28, (6RS)-3-[2,6-Difluoro-4-(2-phenylethynyl)phenyl]-1,6-dimethyl-6-(4-pyridyl)hexahydropyrimidine-2,4-dione]: the Emax stood at 105% and the EC50 is 112 nM.
Taken in the same sequence, the figures for `CC(C)(C)C1(C)CC(=O)N(c2c(F)cc(C#Cc3ccccc3)cc2F)C(=O)N1` (racemic) [Example 43, (6RS)-6-tert-Butyl-3-[2,6-difluoro-4-(2-phenylethynyl)phenyl]-6-methyl-hexahydropyrimidine-2,4-dione] were 92% and 75 nM.
As for `CN1C(=O)N(c2c(F)cc(C#Cc3ccccc3)cc2F)C(=O)C[C@@]1(C)c1cccnn1` [Example 58, (6S)-3-[2,6-Difluoro-4-(2-phenylethynyl)phenyl]-1,6-dimethyl-6-pyridazin-3-yl-hexahydropyrimidine-2,4-dione], the Emax is 99% and the EC50 turned out to be 49 nM.
In the case of `CCN1C(=O)N(c2c(F)cc(C#Cc3ccccc3)cc2F)C(=O)C[C@@]1(C)c1ccnc(C)c1` [Example 77, (6S)-3-[2,6-Difluoro-4-(2-phenylethynyl)phenyl]-1-ethyl-6-methyl-6-(2-methyl-4-pyridyl)hexahydropyrimidine-2,4-dione], the Emax was 111% and the EC50 was determined as 68 nM.
On to `CN1C(=O)N(c2c(F)cc(C#Cc3ccccc3)cc2Cl)C(=O)C[C@@]1(C)c1cccnc1` [Example 71, (6S)-3-[2-Chloro-6-fluoro-4-(2-phenylethynyl)phenyl]-1,6-dimethyl-6-(3-pyridyl)hexahydropyrimidine-2,4-dione], for which the Emax turned out to be 105% and the EC50 amounted to 148 nM.
